Like-named read-outs stand apart in the source and are kept apart here.
Molecular target: full length USP7 (Homo sapiens (Human), UniProt Q93009)
Assay: Ub-AMC enzymatic assay with full-length USP7
Assay type: biochemical
Conditions: 6 hours pre-incubation, Ub-AMC
Experimental: Both constructs were overexpressed in E. coli BL21 (DE3). Cells were grown at 37° C. to an OD of 0.9, cooled to 16° C., induced with 500 μM isopropyl-1-thio-D-galactopyranoside (IPTG), incubated overnight at 16° C., collected by centrifugation, and stored at −80° C. Cell pellets were sonicated in lysis buffer (25 mM Tris pH 8, 1 M NaCl, and 10 mM BME) supplemented with 10 μg/ml phenylmethanesulfonylfluoride (PMSF) and the resulting lysate was centrifuged at 30,000×g for 40 min. Ni-NTA beads (Qiagen) were mixed with lysate supernatant for 2 hours, and washed with lysis buffer supplemented with 25 mM imidazole. The bound protein was eluted with lysis buffer supplemented with 300 mM imidazole. The sample was then concentrated to 1 ml (30 kDa concentrator; Amicon Ultra, Millipore), and run on a Superdex 200 (GE healthcare) in buffer containing 25 mM HEPES pH 7.5, 200 mM NaCl, and 1 mM DTT. Fractions were pooled, concentrated and frozen at −80° C.
Full length USP7 was tested for its activity in Ubiquitin-AMC assay in presence or absence of inhibitors. USP7 (5 nM) was pre-incubated for 6 hours at room temperature with different concentrations of inhibitors or DMSO as a control in 50 mM HEPES pH 7.5, 0.5 mM EDTA, 11 μM ovalbumin, and 5 mM DTT. Ubiquitin-AMC (Boston Biochem) was then added to a final concentration of 500 nM. The initial rate of the reaction was measured by collecting fluorescence data at one minute intervals over 30-minute period using a Clariostar fluorescence plate reader at excitation and emission wavelength of 345 and 445 nm respectively. The calculated initial rate values were plotted against inhibitor concentrations to determine IC50s. All the experimental data were plotted using Prism GraphPad. All assays for each compound were performed at least twice for each compound.

[1] = Table 1, read-out: IC50 (nM), USP7 activity in USP7 assay
[2] = Table 2, read-out: IC50 (μM), USP7 activity in USP7 assay
[3] = Table 3, read-out: IC50 (μM), USP7 activity in USP7 assay

Chain of full length USP7 (Q93009 whole entry): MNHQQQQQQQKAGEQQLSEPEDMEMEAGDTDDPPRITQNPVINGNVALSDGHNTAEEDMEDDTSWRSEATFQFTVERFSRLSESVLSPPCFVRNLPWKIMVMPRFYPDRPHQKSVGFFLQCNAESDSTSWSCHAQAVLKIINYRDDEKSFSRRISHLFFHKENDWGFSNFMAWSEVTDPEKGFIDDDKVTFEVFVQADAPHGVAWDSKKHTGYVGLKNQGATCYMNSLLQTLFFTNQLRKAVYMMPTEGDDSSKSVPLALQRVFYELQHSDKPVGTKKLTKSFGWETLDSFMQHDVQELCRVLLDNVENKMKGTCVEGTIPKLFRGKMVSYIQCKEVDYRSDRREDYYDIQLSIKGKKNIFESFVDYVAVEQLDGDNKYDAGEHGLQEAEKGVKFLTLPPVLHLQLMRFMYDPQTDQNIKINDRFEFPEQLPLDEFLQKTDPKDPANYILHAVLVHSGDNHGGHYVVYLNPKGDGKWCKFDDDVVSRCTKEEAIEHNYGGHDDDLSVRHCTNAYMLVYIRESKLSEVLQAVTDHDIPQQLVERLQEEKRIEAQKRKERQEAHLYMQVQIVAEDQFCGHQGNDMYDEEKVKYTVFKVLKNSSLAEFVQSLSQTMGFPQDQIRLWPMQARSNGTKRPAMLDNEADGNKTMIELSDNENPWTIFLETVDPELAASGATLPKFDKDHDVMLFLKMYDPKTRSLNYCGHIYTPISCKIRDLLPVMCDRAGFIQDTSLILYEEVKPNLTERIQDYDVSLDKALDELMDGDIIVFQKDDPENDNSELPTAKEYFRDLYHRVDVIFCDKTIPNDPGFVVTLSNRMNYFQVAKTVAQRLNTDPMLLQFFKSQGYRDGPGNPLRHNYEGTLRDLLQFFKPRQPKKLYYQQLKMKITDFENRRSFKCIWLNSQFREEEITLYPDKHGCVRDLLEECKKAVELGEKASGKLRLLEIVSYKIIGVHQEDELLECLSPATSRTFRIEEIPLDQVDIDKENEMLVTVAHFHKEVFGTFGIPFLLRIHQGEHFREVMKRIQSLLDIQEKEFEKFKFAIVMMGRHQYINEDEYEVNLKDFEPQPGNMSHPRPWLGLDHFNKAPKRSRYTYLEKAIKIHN

IC50 [1] [nM] | IC50 [3] [nM] | Compound | further results
20 to 100 | – | CN(C)CCC(=O)Nc1ccc2c(=O)n(CC3(O)CCN(C(=O)CCCCNC(=O)c4ccc5c(Cl)c6c(nc5c4)CCCC6)CC3)cnc2c1 | –
100 to 1000 | – | O=C(CCN1CCOCC1)Nc1ccc2c(=O)n(CC3(O)CCN(C(=O)CCCCNC(=O)c4ccc5c(Cl)c6c(nc5c4)CCCC6)CC3)cnc2c1 | –
20 to 100 | – | O=C(CCn1ccnc1)Nc1ccc2c(=O)n(CC3(O)CCN(C(=O)CCCCNC(=O)c4ccc5c(Cl)c6c(nc5c4)CCCC6)CC3)cnc2c1 | –
< 20 | – | CN1CCN(CCC(=O)Nc2ccc3c(=O)n(CC4(O)CCN(C(=O)C(CCCNC(=O)c5ccc6c(Cl)c7c(nc6c5)CCCC7)Cc5ccccc5)CC4)cnc3c2)CC1 (centres unmarked) | –
> 1000 | – | CN1CCN(CCC(=O)Nc2ccc3c(=O)n(CC4(O)CCN(C(=O)CNC(=O)c5ccc6c(Cl)c7c(nc6c5)CCCC7)CC4)cnc3c2)CC1 | –
100 to 1000 | – | CN1CCN(CCC(=O)Nc2ccc3c(=O)n(CC4(O)CCN(C(=O)CCNC(=O)c5ccc6c(Cl)c7c(nc6c5)CCCC7)CC4)cnc3c2)CC1 | –
20 to 100 | – | CN1CCN(CCC(=O)Nc2ccc3c(=O)n(CC4(O)CCN(C(=O)CCCNC(=O)c5ccc6c(Cl)c7c(nc6c5)CCCC7)CC4)cnc3c2)CC1 | –
20 to 100 | – | CN1CCN(CCC(=O)Nc2ccc3c(=O)n(CC4(O)CCN(C(=O)CCCCCNC(=O)c5ccc6nc7c(c(Cl)c6c5)CCCC7)CC4)cnc3c2)CC1 | –
< 20 | – | CN1CCN(CCC(=O)Nc2ccc3c(=O)n(CC4(O)CCN(C(=O)C(CCNC(=O)c5ccc6c(Cl)c7c(nc6c5)CCCC7)Cc5ccccc5)CC4)cnc3c2)CC1 (centres unmarked) | –
20 to 100 | – | CN1CCN(CCC(=O)Nc2ccc3c(=O)n(CC4(O)CCN(C(=O)C(CCCNC(=O)c5ccc6c(c5)CCCN6C(=O)CCl)Cc5ccccc5)CC4)cnc3c2)CC1 (centres unmarked) | –
20 to 100 | – | C=CS(=O)(=O)N1CCCc2cc(C(=O)NCCCC(Cc3ccccc3)C(=O)N3CCC(O)(Cn4cnc5cc(NC(=O)CCN6CCN(C)CC6)ccc5c4=O)CC3)ccc21 (centres unmarked) | –
> 1000 | – | CN1CCN(CCC(=O)Nc2ccc3c(=O)n(CC4(O)CCN(C(=O)C(CCCNC(=O)c5cnccc5Cl)Cc5ccccc5)CC4)cnc3c2)CC1 (centres unmarked) | –
< 20 | – | CN1CCN(CCC(=O)Nc2ccc3c(=O)n(CC4(O)CCN(C(=O)C(CCCNC(=O)c5ccc6c(Cl)c7c(nc6c5)CCCCC7)Cc5ccccc5)CC4)cnc3c2)CC1 (centres unmarked) | –
< 20 | – | CN1CCN(CCC(=O)Nc2ccc3c(=O)n(CC4(O)CCN(C(=O)C(CCCNC(=O)c5ccc6c(Cl)c7c(nc6c5)CCC7)Cc5ccccc5)CC4)cnc3c2)CC1 (centres unmarked) | –
100 to 1000 | – | CN1CCN(CCC(=O)Nc2ccc3c(=O)n(CC4(O)CCN(C(=O)C(CCCNC(=O)C5(C#N)CC5)Cc5ccccc5)CC4)cnc3c2)CC1 (centres unmarked) | –
> 1000 | – | CN1CCN(CCC(=O)Nc2ccc3c(=O)n(CC4(O)CCN(C(=O)C(CCCNC(=O)c5cc(C(=O)CCl)cn5C)Cc5ccccc5)CC4)cnc3c2)CC1 (centres unmarked) | –
< 20 | – | CN1CCN(CCC(=O)Nc2ccc3c(=O)n(CC4(O)CCN(C(=O)[C@H](Cc5ccccc5)NC(=O)CNC(=O)c5ccc6c(Cl)c7c(nc6c5)CCCC7)CC4)cnc3c2)CC1 | –
< 20 | – | CN1CCN(CCC(=O)Nc2ccc3c(=O)n(CC4(O)CCN(C(=O)[C@H](Cc5ccccc5)NC(=O)CCNC(=O)c5ccc6c(Cl)c7c(nc6c5)CCCC7)CC4)cnc3c2)CC1 | –
> 1000 | – | CN1CCN(CCC(=O)Nc2ccc3c(=O)n(CC4CCN(C(=O)C(CCCNC(=O)c5ccc6c(Cl)c7c(nc6c5)CCCC7)Cc5ccccc5)CC4)cnc3c2)CC1 (centres unmarked) | –
< 20 | – | CN1CCN(CCC(=O)Nc2ccc3c(=O)n(CC4(O)CCN(C(=O)[C@H](Cc5ccccc5)NC(=O)CN(C)C(=O)c5ccc6c(Cl)c7c(nc6c5)CCCC7)CC4)cnc3c2)CC1 | –
< 20 | – | O=C(CCN1CCOCC1)Nc1ccc2c(=O)n(CC3(O)CCN(C(=O)[C@H](Cc4c[nH]cn4)NC(=O)CNC(=O)c4ccc5c(Cl)c6c(nc5c4)CCCC6)CC3)cnc2c1 | –
< 20 | – | O=C(CCN1CCOCC1)Nc1ccc2c(=O)n(CC3(O)CCN(C(=O)[C@H](CC4CCCCC4)NC(=O)CNC(=O)c4ccc5c(Cl)c6c(nc5c4)CCCC6)CC3)cnc2c1 | –
< 20 | – | O=C(CCN1CCOCC1)Nc1ccc2c(=O)n(CC3(O)CCN(C(=O)[C@H](Cc4cscn4)NC(=O)CNC(=O)c4ccc5c(Cl)c6c(nc5c4)CCCC6)CC3)cnc2c1 | –
< 20 | – | O=C(CCN1CCOCC1)Nc1ccc2c(=O)n(CC3(O)CCN(C(=O)[C@H](Cc4cc(F)cc(F)c4)NC(=O)CNC(=O)c4ccc5c(Cl)c6c(nc5c4)CCCC6)CC3)cnc2c1 | –
100 to 1000 | – | O=C(NCCC[C@@H](Cc1ccccc1)C(=O)N1CCC(O)(Cn2cnc3cc(N4CCOCC4)ccc3c2=O)CC1)c1ccc2c(Cl)c3c(nc2c1)CCCC3 | –

IC50 [1] [nM] | IC50 [3] [nM] | Compound | further results
> 1000 | – | O=C(CCN1CCOCC1)Nc1ccc2c(=O)n(CC3(O)CCN(C(=O)[C@@H](CCCNC(=O)c4ccc(/C=C/C(=O)N5CCCCC5)nc4)Cc4ccccc4)CC3)cnc2c1 | –
> 1000 | – | CC(C)NC(=O)/C=C/c1ccc(C(=O)NCCC[C@@H](Cc2ccccc2)C(=O)N2CCC(O)(Cn3cnc4cc(NC(=O)CCN5CCOCC5)ccc4c3=O)CC2)cn1 | –
> 1000 | – | CN(C)C(=O)/C=C/c1ccc(C(=O)NCCC[C@@H](Cc2ccccc2)C(=O)N2CCC(O)(Cn3cnc4cc(NC(=O)CCN5CCOCC5)ccc4c3=O)CC2)cn1 | –
– | – | O=C(CCN1CCN(C(=O)c2ccc3c(Cl)c4c(nc3c2)CCCC4)CC1)N1CCC(O)(Cn2cnc3cc(Cl)ccc3c2=O)CC1 | IC50 [2]: 100 to 1000 nM
– | – | O=C(CN1CCN(C(=O)c2ccc3c(Cl)c4c(nc3c2)CCCC4)CC1)N1CCC(O)(Cn2cnc3cc(Cl)ccc3c2=O)CC1 | IC50 [2]: 20 to 100 nM
– | – | C#CCNCCCC(Cc1ccccc1)C(=O)N1CCC(O)(Cn2cnc3cc(NC(=O)CCN4CCN(C)CC4)ccc3c2=O)CC1 (centres unmarked) | IC50 [2]: 20 to 100 nM
– | – | C=CS(=O)(=O)NCCCC(Cc1ccccc1)C(=O)N1CCC(O)(Cn2cnc3cc(NC(=O)CCN4CCN(C)CC4)ccc3c2=O)CC1 (centres unmarked) | IC50 [2]: 20 to 100 nM
– | – | C=CC(=O)NCCCC(Cc1ccccc1)C(=O)N1CCC(O)(Cn2cnc3cc(NC(=O)CCN4CCN(C)CC4)ccc3c2=O)CC1 (centres unmarked) | IC50 [2]: < 20 nM
– | – | CN1CCN(CCC(=O)Nc2ccc3c(=O)n(CC4(O)CCN(C(=O)C(CCCNC(=O)c5ccc(/C=C6\CCCCC6=O)cc5)Cc5ccccc5)CC4)cnc3c2)CC1 (centres unmarked) | IC50 [2]: 20 to 100 nM
– | 20 to 100 | O=C(CCN1CCOCC1)Nc1ccc2c(=O)n(CC3(O)CCN(C(=O)[C@H](Cc4ccccc4)NC(=O)COc4cccc5c(Cl)c6c(nc45)CCCC6)CC3)cnc2c1 | –
– | 20 to 100 | O=C(NCCCC(Cc1ccccc1)C(=O)N1CCC(O)(Cn2cnc3cc(OCCN4CCOCC4)ccc3c2=O)CC1)c1ccc2c(Cl)c3c(nc2c1)CCCC3 (centres unmarked) | –
– | 100 to 1000 | O=C(CCN1CCOCC1)Nc1ccc2c(=O)n(CC3(O)CCN(C(=O)C(CCCNC(=O)c4ccc5c(Cl)cc(C(F)(F)F)nc5c4)Cc4ccccc4)CC3)cnc2c1 (centres unmarked) | –
– | 20 to 100 | CN1CCN(CCC(=O)Nc2ccc3c(=O)n(CC4(O)CCN(C(=O)[C@@H](Cc5ccccc5)NC(=O)CNC(=O)c5ccc6c(Cl)c7c(nc6c5)CCCC7)CC4)cnc3c2)CC1 | –
– | 20 to 100 | CN1CCN(CCC(=O)Nc2ccc3c(=O)n(CC4(O)CCN(C(=O)[C@@H](Cc5ccccc5)NC(=O)CNC(=O)c5ccc6c(Cl)ccnc6c5)CC4)cnc3c2)CC1 | –
– | > 1000 | O=C(CCN1CCOCC1)Nc1ccc2c(=O)n(CC3(O)CCN(C(=O)[C@H](Cc4ccccc4)n4ccnn4)CC3)cnc2c1 | –
– | > 1000 | Cc1cc(Cl)c2ccc(C(=O)NCCCC(Cc3ccccc3)C(=O)N3CCC(O)(Cn4cnc5cc(NC(=O)CCN6CCOCC6)ccc5c4=O)CC3)cc2n1 (centres unmarked) | –
– | > 1000 | O=C(CCN1CCOCC1)Nc1ccc2c(=O)n(CC3(O)CCN(C(=O)C(CCCNC(=O)c4ccc5c(O)ccnc5c4)Cc4ccccc4)CC3)cnc2c1 (centres unmarked) | –
– | > 1000 | C=CC(=O)Nc1ccccc1-c1cn([C@@H](Cc2ccccc2)C(=O)N2CCC(O)(Cn3cnc4cc(NC(=O)CCN5CCOCC5)ccc4c3=O)CC2)nn1 | –
– | > 1000 | C=CC(=O)Nc1cccc(-c2cn([C@@H](Cc3ccccc3)C(=O)N3CCC(O)(Cn4cnc5cc(NC(=O)CCN6CCOCC6)ccc5c4=O)CC3)nn2)c1 | –
– | 20 to 100 | CN1CCN(CCC(=O)Nc2ccc3c(=O)n(CC4(O)CCN(C(=O)C(CCCNC(=O)c5ccc6c(Cl)cc(C7CCCCC7)nc6c5)Cc5ccccc5)CC4)cnc3c2)CC1 (centres unmarked) | –
– | 20 to 100 | CN1CCN(CCC(=O)Nc2ccc3c(=O)n(CC4(O)CCN(C(=O)C(CCCNC(=O)c5ccc6c(Cl)cc(-c7cscn7)nc6c5)Cc5ccccc5)CC4)cnc3c2)CC1 (centres unmarked) | –
– | 20 to 100 | CN1CCN(CCC(=O)Nc2ccc3c(=O)n(CC4(O)CCN(C(=O)C(CCCNC(=O)c5ccc6c(Cl)cc(-c7ccc(F)cc7)nc6c5)Cc5ccccc5)CC4)cnc3c2)CC1 (centres unmarked) | –
– | 100 to 1000 | CN1CCN(CCC(=O)Nc2ccc3c(=O)n(CC4(O)CCN(C(=O)C(CCCNC(=O)c5ccc6c(Cl)cc(-c7ccccc7)nc6c5)Cc5ccccc5)CC4)cnc3c2)CC1 (centres unmarked) | –
– | > 1000 | CN1CCN(CCC(=O)Nc2ccc3c(=O)n(CC4(O)CCN(C(=O)C(CCCNC(=O)c5ccc6c(Cl)c7c(nc6c5)CCCC7)c5ccccc5)CC4)cnc3c2)CC1 (centres unmarked) | –
– | > 1000 | COc1cccc(CC(CCCNC(=O)c2ccc3c(Cl)c4c(nc3c2)CCCC4)C(=O)N2CCC(O)(Cn3cnc4cc(NC(=O)CCN5CCN(C)CC5)ccc4c3=O)CC2)c1 (centres unmarked) | –
